The results in this text go back to PubChem BioAssay (NCI).

Molecules are shown by their SMILES.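 Tested at 5 concentrations; 48 h exposure; 96-well plates; endpoints linearly interpolated, else capped at highest concentration. At the GI50, growth is halved. The concentration for full growth arrest is given as TGI.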

Experiment in all cases: DTP human tumour cell line panel, 48 h
Test [1] deals with OVCAR-4 ovarian.
The test system of test [2] is SW-620 colon.
Test [3] concerns HL-60(TB) leukemia.
Test [4] concerns ACHN renal.
Test [5] concerns HT29 colon.
For test [6], the system named is UACC-62 melanoma.
In test [7] the test system is KM12 colon.
The subject of test [8] is 786-0 renal.
The subject of test [9] is COLO 205 colon.
Test [10] has as its system M14 melanoma.

Consider `O=C1NN2CC(c3ccccc3)=NN=C2c2ccccc21`, for which the GI50 in test [1] was 61 µM; in [2], 33 µM; in test [3], 19.9 µM; in test [4], 36.9 µM; in [5] it was 24.7 µM; in test [6], 22.6 µM. The GI50 in [7] is 31.9 µM; in [8], 26.2 µM; in test [9] it was 20.3 µM; in test [10], 21.9 µM. Besides, the TGI was above 100 µM in test [1]; above 100 µM in test [2]; 56.8 µM in test [3]; above 100 µM in test [4]; 49 µM in [5]; 49.5 µM in [6]. Besides, the TGI was above 100 µM in test [7], 72.3 µM in test [8], 41 µM in test [9] and 48.9 µM in test [10].

In the case of `O=c1nc2n(-c3cccc(Cl)c3)c3ccc([N+](=O)[O-])cc3cc-2c(=O)[nH]1`, the GI50 in [1] was above 25 µM; in [2], 2.3 µM; in test [3], 1.29 µM; in test [4] it was 5.32 µM; in test [5] it was 9.06 µM; in [6], 3.54 µM. Moreover, the GI50 in test [7] was 3.13 µM; in [8] it was 4.49 µM; in test [9] it was 7.94 µM; in test [10], 6.55 µM. Besides, the TGI was above 25 µM in test [1]; above 25 µM in test [2]; above 25 µM in [3]; 16 µM in [4]; above 25 µM in [5]; 8.38 µM in [6]. Further, the TGI in test [7] was 7.57 µM; in test [8], 9.5 µM; in [9], above 25 µM; in test [10], 16.8 µM.

Consider `C/C(=C\C(=O)O[C@H]1[C@@H]2[C@H](C)CC[C@H]2[C@]2(C)O[C@@]1(C1CCCCC1)C[C@H]2OC(=O)CO)c1ccccc1`, for which the GI50 in [1] is 7.25 µM; in test [2] it was 6.78 µM; in test [3], 5.04 µM; in [4], 0.0147 µM; in test [5], 6.47 µM; in [6], 6.62 µM. Besides, the GI50 was 6.44 µM in [7], 5.11 µM in [8], 7.61 µM in test [9] and 7.95 µM in [10]. In addition, the TGI in test [1] is 13.8 µM; in test [2], 13.3 µM; in [3], 13.1 µM; in test [4] it was 6.02 µM; in [5], 13 µM; in test [6], 12.4 µM. In addition, the TGI in test [7] stood at 13 µM; in [8] it was 10.6 µM; in test [9], 15 µM; in [10] it was 18.1 µM.

As usually defined, the GI50 is the concentration that inhibits growth by half. The term TGI denotes the concentration giving total growth inhibition. A high value points to less potent growth arrest.
